Experimental data: patent publication US20240368092A1, “2,4-Dihydro-3H-1,2,4-Triazol-3-One P2X7 Antagonists” (Breye Therapeutics ApS, priority 2021, published 2024)

Legend:
Assay type in all cases: cell-based
humanP2X7 = molecular target: T1, humanP2X7 (Homo sapiens, UniProt Q99572); test: P2X7 channel calcium-influx assay (Fluo-8, FLIPR TETRA), human P2X7; details: HEK-293 cells stably transfected with P2X7; Bz-ATP at EC80; low divalent cation buffer; read-out: humanP2X7 (activity range)
T1 construct: expressed in transfected cells; host or cells: HEK-293
T1 sequence (Q99572 1-595): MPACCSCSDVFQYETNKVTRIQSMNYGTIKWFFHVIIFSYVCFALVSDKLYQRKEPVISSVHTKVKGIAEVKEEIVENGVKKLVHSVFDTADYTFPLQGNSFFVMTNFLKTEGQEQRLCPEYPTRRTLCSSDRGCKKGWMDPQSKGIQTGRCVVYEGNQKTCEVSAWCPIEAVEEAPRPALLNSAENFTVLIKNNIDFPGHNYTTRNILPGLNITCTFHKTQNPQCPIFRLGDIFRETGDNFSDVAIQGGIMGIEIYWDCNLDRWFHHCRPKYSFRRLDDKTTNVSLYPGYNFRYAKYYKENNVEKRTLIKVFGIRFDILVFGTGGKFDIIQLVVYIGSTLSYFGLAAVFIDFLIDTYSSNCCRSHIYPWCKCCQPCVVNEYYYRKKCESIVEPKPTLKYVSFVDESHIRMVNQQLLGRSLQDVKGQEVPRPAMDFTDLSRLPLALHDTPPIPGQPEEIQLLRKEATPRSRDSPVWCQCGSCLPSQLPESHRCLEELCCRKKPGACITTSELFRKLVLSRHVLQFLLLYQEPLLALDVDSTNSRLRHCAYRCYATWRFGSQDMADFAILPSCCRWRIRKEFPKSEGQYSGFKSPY
Outline: (§1)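 HEK-293 cells stably expressing the respective species' P2X7, Fluo-8 NW loaded 1 h at RT in low divalent buffer (0.3 mM Ca2+, 0 mM Mg2+). Compound preincubated 5 min, then Bz-ATP at EC80; FLIPR calcium influx over 3 min. IC50 from % inhibition relative to reference antagonist A438079, reported as potency bins.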

ratP2X7 = molecular target: T2, ratP2X7 (Rattus norvegicus, UniProt Q64663); test: P2X7 channel calcium-influx assay (Fluo-8, FLIPR TETRA), rat P2X7; details: HEK-293 cells stably transfected with P2X7; Bz-ATP at EC80; low divalent cation buffer; read-out: ratP2X7 (activity range)
T2 construct: expressed in transfected cells; host or cells: HEK-293
T2 sequence (Q64663 1-595): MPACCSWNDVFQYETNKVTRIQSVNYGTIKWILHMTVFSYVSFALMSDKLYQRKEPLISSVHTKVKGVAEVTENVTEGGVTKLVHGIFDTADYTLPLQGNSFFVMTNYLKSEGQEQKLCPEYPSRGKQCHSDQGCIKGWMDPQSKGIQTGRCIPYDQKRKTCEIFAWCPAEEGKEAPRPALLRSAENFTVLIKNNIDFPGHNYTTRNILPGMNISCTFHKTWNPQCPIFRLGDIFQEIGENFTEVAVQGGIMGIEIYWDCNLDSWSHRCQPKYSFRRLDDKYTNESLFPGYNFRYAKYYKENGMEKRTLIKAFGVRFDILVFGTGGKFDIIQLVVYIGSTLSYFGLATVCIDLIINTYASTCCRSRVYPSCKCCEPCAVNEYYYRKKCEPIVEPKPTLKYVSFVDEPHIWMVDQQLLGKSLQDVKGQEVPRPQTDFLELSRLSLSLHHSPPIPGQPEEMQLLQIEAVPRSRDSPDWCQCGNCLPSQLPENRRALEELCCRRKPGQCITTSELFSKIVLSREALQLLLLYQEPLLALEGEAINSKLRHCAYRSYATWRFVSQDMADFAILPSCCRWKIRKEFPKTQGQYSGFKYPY
Outline: as §1

human P2X7 channel = molecular target: T3, human P2X7 channel (Homo sapiens, UniProt Q99572); test: human P2X7 channel assay by automated patch-clamp (QPatch 16X); details: HEK-293 cells expressing P2X7; current evoked by 100 microM BzATP; whole-cell, held at -80 mV; read-out: human Q-Patch (activity range)
T3 construct: expressed in transfected cells; host or cells: HEK-293
T3 sequence (Q99572 1-595): T1 sequence (Q99572 1-595)
Outline: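 Whole-cell patch clamp on HEK-293 cells expressing P2X7, room temperature, held at −80 mV, CsF internal and NaCl external (pH 7.4). Currents evoked by 100 microM BzATP, four controls then with compound at 1, 10, 100 and 1000 nM; peak inward current normalized, IC50 from dose-response fit, reported as potency bins.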

mouseP2X7 = molecular target: T4, mouseP2X7 (Mus musculus, UniProt Q9Z1M0); test: P2X7 channel calcium-influx assay (Fluo-8, FLIPR TETRA), mouse P2X7; details: HEK-293 cells stably transfected with P2X7; Bz-ATP at EC80; low divalent cation buffer; read-out: mouseP2X7 (activity range)
T4 construct: expressed in transfected cells; host or cells: HEK-293
T4 sequence (Q9Z1M0 1-595): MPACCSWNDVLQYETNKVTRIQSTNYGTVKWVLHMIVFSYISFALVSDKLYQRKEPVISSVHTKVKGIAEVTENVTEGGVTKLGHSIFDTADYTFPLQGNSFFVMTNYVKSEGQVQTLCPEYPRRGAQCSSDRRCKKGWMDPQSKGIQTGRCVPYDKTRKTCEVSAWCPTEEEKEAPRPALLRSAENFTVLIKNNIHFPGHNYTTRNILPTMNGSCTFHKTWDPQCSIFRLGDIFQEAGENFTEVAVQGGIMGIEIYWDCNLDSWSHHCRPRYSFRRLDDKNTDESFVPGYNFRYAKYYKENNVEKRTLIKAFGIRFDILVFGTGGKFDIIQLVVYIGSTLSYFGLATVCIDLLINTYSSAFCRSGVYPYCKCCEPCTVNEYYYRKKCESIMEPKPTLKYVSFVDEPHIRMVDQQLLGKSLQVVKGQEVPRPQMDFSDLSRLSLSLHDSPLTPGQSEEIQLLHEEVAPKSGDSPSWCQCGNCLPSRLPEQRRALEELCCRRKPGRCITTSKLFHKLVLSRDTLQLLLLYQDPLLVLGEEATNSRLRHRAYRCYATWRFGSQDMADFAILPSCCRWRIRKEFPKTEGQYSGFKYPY
Outline: as §1

SMILES	IC50 (humanP2X7) [nM]	IC50 (ratP2X7) [nM]	IC50 (human P2X7 channel) [nM]	IC50 (mouseP2X7) [nM]
O=c1n(CC(F)(F)F)nc(Cc2c(F)cccc2Cl)n1CC1CCCCCC1 [Example 67, 5-[(2-chloro-6-fluorophenyl)methyl]-4-(cycloheptylmethyl)-2-(2,2,2-trifluoroethyl)-2,4-dihydro-3H-1,2,4-triazol-3-one]	< 200	< 200	10 to 100	< 200
CN1CCCCC1Cn1c(Cc2c(F)cccc2Cl)nn(CC(F)(F)F)c1=O (stereo not shown) [Example 68, 5-[(2-chloro-6-fluorophenyl)methyl]-4-[(1-methylpiperidin-2-yl)methyl]-2-(2,2,2-trifluoroethyl)-2,4-dihydro-3H-1,2,4-triazol-3-one]	1000 to 10000	200 to 1000	1000 to 10000	1000 to 10000
O=c1n(CC2CC2)nc(Cc2c(F)cccc2Cl)n1CC1CCC(C(F)(F)F)CC1 (stereo not shown) [Example 69, 5-(2-chloro-6-fluorobenzyl)-2-(cyclopropylmethyl)-4-((4-(trifluoromethyl)cyclohexyl)methyl)-2,4-dihydro-3H-1,2,4-triazol-3-one]	< 200	< 200	10 to 100	200 to 1000
O=c1n(CC(F)(F)F)nc(CC2CCC(F)(F)CC2)n1Cc1c(F)cccc1Cl [Example 70, 4-[(2-chloro-6-fluorophenyl)methyl]-5-[(4,4-difluorocyclohexyl)methyl]-2-(2,2,2-trifluoroethyl)-2,4-dihydro-3H-1,2,4-triazol-3-one]	200 to 1000	< 200	100 to 1000	1000 to 10000
